Data as given in patent US20100286128A1 (priority 2007, published 2010).
Counter-ions that a name gives are not always drawn.

Biological target: α7-subtype of nicotinic receptors (Rattus norvegicus, UniProt Q05941)
Assay: biochemical
Format: binding

Sequence of α7-subtype of nicotinic receptors (Q05941 23-502): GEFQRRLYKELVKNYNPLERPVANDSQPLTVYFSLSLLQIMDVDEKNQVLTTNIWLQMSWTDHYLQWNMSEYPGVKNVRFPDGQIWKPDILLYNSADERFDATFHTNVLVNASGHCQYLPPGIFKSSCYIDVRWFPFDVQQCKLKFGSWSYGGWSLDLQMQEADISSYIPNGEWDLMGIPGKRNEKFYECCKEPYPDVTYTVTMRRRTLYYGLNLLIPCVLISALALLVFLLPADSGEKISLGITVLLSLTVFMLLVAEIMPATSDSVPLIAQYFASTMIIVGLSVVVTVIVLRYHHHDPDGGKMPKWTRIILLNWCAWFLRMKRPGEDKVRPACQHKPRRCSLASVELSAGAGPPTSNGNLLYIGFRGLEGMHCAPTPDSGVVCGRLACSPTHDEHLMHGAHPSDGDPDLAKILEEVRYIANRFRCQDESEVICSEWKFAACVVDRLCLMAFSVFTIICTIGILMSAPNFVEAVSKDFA

c1csc(-c2cnc(N3CCN4CCC3CC4)nc2)c1 [Compound A1, 4-(5-Thiophen-2-yl-pyrimidin-2-yl)-1,4-diaza-bicyclo[3.2.2]nonane hydrochloric acid salt]
IC50: < 100 nM
